The results in this text go back to patent US6689790B2, “Substituted triazolopyridine compounds” (Hoffmann-La Roche Inc., priority 2001, dated 2004).

In this assay the target is T1, human adenosine A2A receptor (Homo sapiens, UniProt P29274).
T1 construct: expressed in transfected cells; host or cells: CHO cells, semliki forest virus expression system; washed membranes
T1 sequence (P29274 whole entry): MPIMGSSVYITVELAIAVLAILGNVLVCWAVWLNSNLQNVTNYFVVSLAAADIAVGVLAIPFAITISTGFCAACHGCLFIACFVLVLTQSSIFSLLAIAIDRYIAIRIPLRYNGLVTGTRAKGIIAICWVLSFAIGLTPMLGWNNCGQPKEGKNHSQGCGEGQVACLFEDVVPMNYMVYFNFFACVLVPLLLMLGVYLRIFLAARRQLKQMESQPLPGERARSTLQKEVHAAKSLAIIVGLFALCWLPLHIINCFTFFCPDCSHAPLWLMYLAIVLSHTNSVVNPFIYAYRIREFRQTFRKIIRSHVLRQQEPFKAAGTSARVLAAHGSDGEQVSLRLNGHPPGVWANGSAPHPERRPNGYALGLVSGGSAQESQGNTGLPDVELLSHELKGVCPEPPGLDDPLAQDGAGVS
Put plainly: [3H]-SCH-58261 binding assay, human adenosine A2A receptor (CHO cell membranes, SPA). The settings on record: [3H]-SCH-58261 displacement; list of examples 10-108; read-out: hA2a Ki. How it is done:
Human Adenosine A2A Receptor
The human adenosine A2A receptor was recombinantly expressed in chinese hamster ovary (CHO) cells using the semliki forest virus expression system. Cells were harvested, washed twice by centrifugation, homogenized and again washed by centrifugation. The final washed membrane pellet was suspended in a Tris (50 mM) buffer containing 120 mM NaCl, 5 mM KCl, 2 mM CaCl2 and 10 mM MgCl2 (pH 7.4) (buffer A). […] Compounds were tested at 10 concentrations from 10 μM-0.3 nM. All assays were conducted in duplicate and repeated at least two times. Assay plates were incubated for 1 hour at room temperature before centrifugation and then bound ligand determined using a Packard Topcount scintillation counter. IC50 values were calculated using a non-linear curve fitting program and Ki values calculated using the Cheng-Prussoff equation.
Broadly, the Ki is the dissociation constant of the complex between target and ligand, obtained from inhibition or displacement. On to `COCC1CCCN1C(=O)c1cc(N)c2nc(-c3ccccc3)nn2c1` (stereo in doubt) [Example 75, (8-Amino-2-phenyl-[1,2,4]triazolo[1,5-a]pyridin-6-yl)-((S)-2-methoxymethyl-pyrrolidin-1-yl)-methanone], for which the Ki was 413 nM. Consider `COC[C@@H]1CCCN1C(=O)c1cc(N)c2nc(-c3ccc(C)o3)nn2c1` (stereo in doubt) [Example 86, [8-Amino-2-(5-methyl-furan-2-yl)-[1,2,4]triazolo[1,5-a]pyridin-6-yl]-(2-methoxymethyl-pyrrolidin-1-yl)-methanone], for which the Ki came to 230 nM. As to `COCC1CCCN1C(=O)c1cc(N)c2nc(-c3ccc(C)s3)nn2c1` (stereo in doubt) [Example 97, [8-Amino-2-(5-methyl-thiophen-2-yl)-[1,2,4]triazolo[1,5-a]pyridin-6-yl]-((S)2-methoxymethyl-pyrrolidin-1-yl)-methanone], the Ki stood at 428 nM. Turning to `Nc1cc(C(=O)N2CCCCC2)cn2nc(-c3ccccn3)nc12` [Example 27, (8-Amino-2-pyridin-2-yl-[1,2,4]triazolo[1,5-a]pyridin-6-yl)-piperidin-1-yl-methanone], the Ki turned out to be 548 nM. `CC1CCCN1C(=O)c1cc(N)c2nc(-c3ccccn3)nn2c1` (centres unmarked) [Example 28, (8-Amino-2-pyridin-2-yl-[1,2,4]triazolo[1,5-a]pyridin-6-yl)-(2-methyl-pyrrolidin-1-yl)-methanone]: the Ki was 369 nM. With `CCN(CC)C(=O)C1CCCN(C(=O)c2cc(N)c3nc(-c4ccccn4)nn3c2)C1` (centres unmarked) [Example 29, 1-(8-Amino-2-pyridin-2-yl-[1,2,4]triazolo[1,5-a]pyridine-6-carbonyl)-piperidine-3-carboxylic acid diethylamide], the Ki was 594 nM. In the case of `CC1CCCN(C(=O)c2cc(N)c3nc(-c4ccccn4)nn3c2)C1` (centres unmarked) [Example 30, (8-Amino-2-pyridin-2-yl-[1,2,4]triazolo[1,5-a]pyridin-6-yl)-(3-methyl-piperidin-1-yl)-methanone], the Ki is 578 nM. Next, `CCCN(C)C(=O)c1cc(N)c2nc(-c3ccccn3)nn2c1` [Example 31, 8-Amino-2-pyridin-2-yl-[1,2,4]triazolo[1,5-a]pyridine-6-carboxylic acid methyl-propyl-amide]: 796 nM; `CN(CCc1ccccc1)C(=O)c1cc(N)c2nc(-c3ccccn3)nn2c1` [Example 32, 8-Amino-2-pyridin-2-yl-[1,2,4]triazolo[1,5-a]pyridine-6-carboxylic acid methyl-phenethyl-amide]: 387 nM; `CCN(CC)C(=O)c1cc(N)c2nc(-c3ccco3)nn2c1` [Example 33, 8-Amino-2-furan-2-yl-[1,2,4]triazolo[1,5-a]pyridine-6-carboxylic acid diethylamide]: 422 nM.

For the compound `CC(C)N(Cc1ccccc1)C(=O)c1cc(N)c2nc(-c3ccco3)nn2c1` [Example 36, 8-Amino-2-furan-2-yl-[1,2,4]triazolo[1,5-a]pyridine-6-carboxylic acid benzyl-isopropyl-amide], the Ki was determined as 229 nM.

On to `CCCN(CCC)C(=O)c1cc(N)c2nc(-c3ccco3)nn2c1` [Example 38, 8-Amino-2-furan-2-yl-[1,2,4]triazolo[1,5-a]pyridine-6-carboxylic acid dipropylamide], for which the Ki was found to be 370 nM. Regarding `CCN(CC)C(=O)C1CCCN(C(=O)c2cc(N)c3nc(-c4ccco4)nn3c2)C1` (centres unmarked) [Example 40, 1-(8-Amino-2-furan-2-yl-[1,2,4]triazolo[1,5-a]pyridine-6-carbonyl)-piperidine-3-carboxylic acid diethylamide], the Ki was found to be 371 nM. Turning to `CN(C)C(=O)CN(C)C(=O)c1cc(N)c2nc(-c3ccco3)nn2c1` [Example 44, 8-Amino-2-furan-2-yl-[1,2,4]triazolo[1,5-a]pyridine-6-carboxylic acid dimethylcarbamoyl-methyl-methyl-amide], the Ki worked out at 343 nM. In the case of `CCN(CCOC)C(=O)c1cc(N)c2nc(-c3ccco3)nn2c1` [Example 45, 8-Amino-2-furan-2-yl-[1,2,4]triazolo[1,5-a]pyridine-6-carboxylic acid ethyl-(2-methoxy-ethyl)-amide], the Ki is 506 nM. As for `CCCN(C)C(=O)c1cc(N)c2nc(-c3ccco3)nn2c1` [Example 47, 8-Amino-2-furan-2-yl-[1,2,4]triazolo[1,5-a]pyridine-6-carboxylic acid methyl-propyl-amide], the Ki stood at 241 nM. In the case of `Nc1cc(C(=O)N2CCSCC2)cn2nc(-c3ccco3)nc12` [Example 49, (8-Amino-2-furan-2-yl-[1,2,4]triazolo[1,5-a]pyridin-6-yl)-thiomorpholin-4-yl-methanone], the Ki was determined as 638 nM.

On to `CN(CCc1ccccc1)C(=O)c1cc(N)c2nc(-c3ccco3)nn2c1` [Example 50, 8-Amino-2-furan-2-yl-[1,2,4]triazolo[1,5-a]pyridine-6-carboxylic acid methyl-phenethyl-amide], for which the Ki came to 251 nM. For `Nc1cc(C(=O)N2CCCCC2)cn2nc(-c3cccs3)nc12` [Example 52, (8-Amino-2-thiophen-2-yl-[1,2,4]triazolo[1,5-a]pyridin-6-yl)-piperidin-1-yl-methanone], the inhibition constant (Ki) was found to be 353 nM.

Turning to `CC1CCCN1C(=O)c1cc(N)c2nc(-c3cccs3)nn2c1` (centres unmarked) [Example 53, (8-Amino-2-thiophen-2-yl-[1,2,4]triazolo[1,5-a]pyridin-6-yl)-(2-methyl-pyrrolidin-1-yl)-methanone], the Ki was 233 nM. Turning to `CCCN(CCC)C(=O)c1cc(N)c2nc(-c3cccs3)nn2c1` [Example 54, 8-Amino-2-thiophen-2-yl-[1,2,4]triazolo[1,5-a]pyridine-6-carboxylic acid dipropylamide], the Ki is 552 nM. For the compound `CC1CCCCN1C(=O)c1cc(N)c2nc(-c3cccs3)nn2c1` (centres unmarked) [Example 55, (8-Amino-2-thiophen-2-yl-[1,2,4]triazolo[1,5-a]pyridin-6-yl)-(2-methyl-piperidin-1-yl)-methanone], the Ki worked out at 260 nM. For the compound `CCN(CC)C(=O)C1CCCN(C(=O)c2cc(N)c3nc(-c4cccs4)nn3c2)C1` (centres unmarked) [Example 56, 1-(8-Amino-2-thiophen-2-yl-[1,2,4]triazolo[1,5-a]pyridine-6-carbonyl)-piperidine-3-carboxylic acid diethylamide], the Ki was found to be 684 nM. Regarding `COC[C@H]1CCCN1C(=O)c1cc(N)c2nc(-c3cccs3)nn2c1` [Example 57, (8-Amino-2-thiophen-2-yl-[1,2,4]triazolo[1,5-a]pyridin-6-yl)-(2-R-methoxymethyl-pyrrolidin-1-yl)-methanone], the Ki turned out to be 242 nM.

As to `COC[C@@H]1CCCN1C(=O)c1cc(N)c2nc(-c3cccs3)nn2c1` [Example 58, (8-Amino-2-thiophen-2-yl-[1,2,4]triazolo[1,5-a]pyridin-6-yl)-(2-S-methoxymethyl-pyrrolidin-1-yl)-methanone], the Ki is 892 nM.

On to `NC(=O)[C@H]1CCCN1C(=O)c1cc(N)c2nc(-c3cccs3)nn2c1` [Example 59, 1-(8-Amino-2-thiophen-2-yl-[1,2,4]triazolo[1,5-a]pyridine-6-carbonyl)-pyrrolidine-2-R-carboxylic acid amide], for which the Ki came out at 215 nM. Regarding `CN(C)C(=O)CN(C)C(=O)c1cc(N)c2nc(-c3cccs3)nn2c1` [Example 60, 8-Amino-2-thiophen-2-yl-[1,2,4]triazolo[1,5-a]pyridine-6-carboxylic acid dimethylcarbamoyl-methyl-methyl-amide], the Ki was 548 nM. Consider `CCN(CCOC)C(=O)c1cc(N)c2nc(-c3cccs3)nn2c1` [Example 61, 8-Amino-2-thiophen-2-yl-[1,2,4]triazolo[1,5-a]pyridine-6-carboxylic acid ethyl-(2-methoxy-ethyl)-amide], for which the Ki was 920 nM. Next, `CC1CCCN(C(=O)c2cc(N)c3nc(-c4cccs4)nn3c2)C1` (centres unmarked) [Example 62, (8-Amino-2-thiophen-2-yl-[1,2,4]triazolo[1,5-a]pyridin-6-yl)-(3-methyl-piperidin-1-yl)-methanone]: 716 nM; `CCCN(C)C(=O)c1cc(N)c2nc(-c3cccs3)nn2c1` [Example 63, 8-Amino-2-thiophen-2-yl-[1,2,4]triazolo[1,5-a]pyridine-6-carboxylic acid methyl-propyl-amide]: 440 nM; `CCN(CCc1ccccn1)C(=O)c1cc(N)c2nc(-c3cccs3)nn2c1` [Example 65, 8-Amino-2-thiophen-2-yl-[1,2,4]triazolo[1,5-a]pyridine-6-carboxylic acid ethyl-(2-pyridin-2-yl-ethyl)-amide]: 718 nM. For the compound `Nc1cc(C(=O)N2CCSCC2)cn2nc(-c3cccs3)nc12` [Example 66, (8-Amino-2-thiophen-2-yl-[1,2,4]triazolo[1,5-a]pyridin-6-yl)-thiomorpholin-4-yl-methanone], the Ki was determined as 982 nM. In the case of `CN(CCc1ccccc1)C(=O)c1cc(N)c2nc(-c3cccs3)nn2c1` [Example 67, 8-Amino-2-thiophen-2-yl-[1,2,4]triazolo[1,5-a]pyridine-6-carboxylic acid methyl-phenethyl-amide], the Ki is 395 nM. Take `Nc1cc(C(=O)N2CCCC2)cn2nc(-c3ccccc3)nc12` [Example 68, (8-Amino-2-phenyl-[1,2,4]triazolo[1,5-a]pyridin-6-yl)-pyrrolidin-1-yl-methanone]: the Ki worked out at 246 nM. For `Nc1cc(C(=O)N2CCCCC2)cn2nc(-c3ccccc3)nc12` [Example 69, (8-Amino-2-phenyl-[1,2,4]triazolo[1,5-a]pyridin-6-yl)-piperidin-1-yl-methanone], the Ki came to 554 nM.
